Measured values: patent US12600732B2, “Bifunctional compounds for degrading BTK via ubiquitin proteosome pathway” (NURIX THERAPEUTICS, INC., priority 2019, dated 2026)

The compounds below were run against T1, BTK (Mus musculus, UniProt P35991) (assay: In vivo degradation of BTK in mouse PD experiments with oral dosing). Settings: oral dose 1 mg/kg, 6 h, splenocytes, HTRF.
T1 construct: from tissue; host or cells: mouse blood B cells / splenocytes (CD-1 or BALB/c)
Procedure: A method of determining the pharmacodynamic profile of BTK degraders was performed by dosing either CD-1 or BALB/c mice with CTM. The CTM was prepared in a suitable formulation and was administered via oral gavage (PO) at a suitable dose level and frequency as informed by prior pharmacokinetic and tolerability studies. Following administration of CTM, BTK levels in blood or splenocytes are measured using flow cytometry or HTRF. For assessment of BTK levels via flow cytometry, either whole blood or splenocytes were first treated with ACK RBC lysis buffer to facilitate lysing of red blood cells. Remaining cells were then stained with fluorophore-conjugated antibodies against CD45, TCR beta and CD45R (B220). Cell pellets were washed with 1×PBS, fixed, and permeabilized for twenty-four hours with Foxp3/Transcription Factor Fixation/Permeabilization Kit. Cells were then stained intracellularly with unconjugated BTK antibody and detected with a fluorophore-conjugated secondary antibody. Stained cells were run on an Attune N×T Acoustic Focusing Flow Cytometer (Thermo-Fisher A29004), and data was analyzed using FlowJo (v10.5.3) and GraphPad Prism (v7.00) software. Lymphocytes were gated for B cells defined as CD45+ TCR beta−B220+ and T cells as CD45+ TCR beta+B220−. The BTK geometric mean fluorescence intensity (MFI) was calculated for B and T cells. Percent BTK degradation for each compound-treated sample was calculated using the equation described below: % Degradation=100*(Treated sample B cell BTK MFI-treated sample T cell BTK MFI)/Vehicle B cell BTK MFI-Vehicle T cell BTK MFI)
This example evaluates in vivo activity of BTK CTMs via a direct mouse PD measurement following oral dosing
Screens were completed at 90 mg/kg for six hours, and then changed to lower doses/longer time points after seeing strong BTK degradation activity with an initial set of compounds. This assay was useful in selecting compounds for in vivo efficacy experiments.

T1 sequence (P35991 whole entry): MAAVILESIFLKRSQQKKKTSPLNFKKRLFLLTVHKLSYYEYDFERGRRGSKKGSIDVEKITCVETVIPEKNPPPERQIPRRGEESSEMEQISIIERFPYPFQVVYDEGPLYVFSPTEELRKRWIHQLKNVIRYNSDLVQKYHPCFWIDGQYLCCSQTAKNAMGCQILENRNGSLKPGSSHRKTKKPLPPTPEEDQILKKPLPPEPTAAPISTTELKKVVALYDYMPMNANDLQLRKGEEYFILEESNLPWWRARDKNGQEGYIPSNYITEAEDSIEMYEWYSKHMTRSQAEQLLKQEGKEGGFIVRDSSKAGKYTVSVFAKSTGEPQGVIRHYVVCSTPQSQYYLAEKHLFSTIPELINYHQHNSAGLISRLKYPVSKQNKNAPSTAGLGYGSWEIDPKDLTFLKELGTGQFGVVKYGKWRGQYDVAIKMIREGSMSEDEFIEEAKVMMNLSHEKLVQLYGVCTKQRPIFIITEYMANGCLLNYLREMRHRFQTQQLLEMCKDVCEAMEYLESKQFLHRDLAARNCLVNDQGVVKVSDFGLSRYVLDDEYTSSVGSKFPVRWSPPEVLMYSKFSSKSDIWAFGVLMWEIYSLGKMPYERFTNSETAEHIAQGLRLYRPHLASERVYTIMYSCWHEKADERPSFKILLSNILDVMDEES

Row | % BTK Remaining | Compound
1 | 93% | CN1CCN([C@@H]2CCCN(c3cnc(C(N)=O)c(Nc4ccc(C5CCN(C[C@@H]6CCCN(c7ccc8c(c7)C(=O)N(C7CCC(=O)NC7=O)C8=O)C6)CC5)cc4)n3)C2)C1=O (stereo partly drawn) [Compound 32, 3-((4-(1-(((3S)-1-(2-(2,6-dioxopiperidin-3-yl)-1,3-dioxoisoindolin-5-yl)piperidin-3-yl)methyl)piperidin-4-yl)phenyl)amino)-5-((R)-3-(3-methyl-2-oxoimidazolidin-1-yl)piperidin-1-yl)pyrazine-2-carboxamide]
2 | 97% | CS(=O)(=O)c1ccc(Nc2nc(N3CCC[C@@H](NC(=O)OCC4CCN(c5ccc6c(c5)C(=O)N([C@H]5CCC(=O)NC5=O)C6=O)CC4)C3)cnc2C(N)=O)cc1 [Compound 218]
3 | 100% | CN1CCN([C@@H]2CCCN(c3cnc(C(N)=O)c(Nc4ccc(N5CC6CN(Cc7ccc8c(c7)C(=O)N(C7CCC(=O)NC7=O)C8=O)CC6C5)cc4)n3)C2)C1=O (some centres unmarked) [Compound 76]
4 | 85% | CN1CCN([C@@H]2CCCN(c3cnc(C(N)=O)c(Nc4ccc(N5CCC6CCN(c7cccc8c7C(=O)N(C7CCC(=O)NC7=O)C8=O)CC6C5)cc4)n3)C2)C1=O (some centres unmarked) [Compound 105]
5 | 102% | CN1CCN([C@H]2CCCN(c3cnc(C(N)=O)c(Nc4ccc(N5CC6CN(c7ccc8c(c7)C(=O)N(C7CCC(=O)NC7=O)C8=O)CC6C5)cc4)n3)C2)C1=O (some centres unmarked) [Compound 79]
6 | 70% | CN1CCN([C@@H]2CCCN(c3cnc(C(N)=O)c(Nc4ccc(N5CCN(C[C@H]6CCN(c7ccc8c(c7)C(=O)N(C7CCC(=O)NC7=O)C8=O)C6)CC5)nc4)n3)C2)C1=O (some centres unmarked) [Compound 113]
7 | 116% | CN1CCN([C@H]2CCCN(c3cnc(C(N)=O)c(Nc4ccc(N5CCC6(CCCN(Cc7ccc8c(c7)C(=O)N(C7CCC(=O)NC7=O)C8=O)C6)CC5)cc4)n3)C2)C1=O (some centres unmarked) [Compound 108]
8 | 79% | CN1CCN([C@@H]2CCCN(c3cnc(C(N)=O)c(Nc4ccc(C5CCN(C[C@@H]6[C@H]7CN(c8ccc9c(c8)C(=O)N(C8CCC(=O)NC8=O)C9=O)C[C@@H]67)CC5)cc4)n3)C2)C1=O (some centres unmarked) [Compound 39]
9 | 82% | CN1CCN([C@@H]2CCCN(c3cnc(C(N)=O)c(Nc4ccc(N5CCN(CCC6CCN(c7ccc8c(c7)C(=O)N(C7CCC(=O)NC7=O)C8=O)CC6)CC5)cc4)n3)C2)C1=O (some centres unmarked) [Compound 40]

Same assay, conditions: oral dose 3 mg/kg, 6 h, blood, flow cytometry

Row | % BTK Remaining | Compound
10 | 100% | CN1CCN([C@@H]2CCCN(c3cnc(C(N)=O)c(Nc4cc5n(n4)CCN(C[C@H]4CCN(c6ccc7c(c6)C(=O)N(C6CCC(=O)NC6=O)C7=O)C4)C5)c3)C2)C1=O (some centres unmarked) [Compound 214]
11 | 97% | Cn1cc(Nc2nc(N3CCC[C@@H](N4CC5(CN(CC6CN(c7ccc8c(c7)C(=O)N(C7CCC(=O)NC7=O)C8=O)C6)C5)OC4=O)C3)cnc2C(N)=O)cn1 (stereo partly drawn) [compound 213, 5-((3R)-3-(2-((1-(2-(2,6-dioxopiperidin-3-yl)-1,3-dioxoisoindolin-5-yl)azetidin-3-yl)methyl)-6-oxo-5-oxa-2,7-diazaspiro[3.4]octan-7-yl)piperidin-1-yl)-3-((1-methyl-1H-pyrazol-4-yl)amino)pyrazine-2-carboxamide]

Same assay, conditions: oral dose 30 mg/kg, 24 h, blood, analysis method not given

Row | % BTK Remaining | Compound
12 | 59% | CN1CCN([C@@H]2CCCN(c3cnc(C(N)=O)c(Nc4ccc(N5CCN(C[C@H]6CCN(c7ccc8c(c7)C(=O)N(C7CCC(=O)NC7=O)C8=O)C6)CC5)nc4)n3)C2)C1=O (some centres unmarked) [Compound 113]

Same assay, conditions: oral dose 30 mg/kg, 24 h, blood, flow cytometry

Row | % BTK Remaining | Compound
13 | 20% | CN1CCN([C@@H]2CCCN(c3cnc(C(N)=O)c(Nc4ccc(C5CCN(C[C@@H]6CCN(c7ccc8c(c7)n(C)c(=O)n8[C@@H]7CCC(=O)NC7=O)C6)CC5)cc4)n3)C2)C1=O [Compound 199]
14 | 25% | CN1CCN([C@@H]2CCCN(c3cnc(C(N)=O)c(Nc4ccc(C5CCN(C[C@H]6CCN(c7ccc8c(c7)n(C)c(=O)n8[C@@H]7CCC(=O)NC7=O)C6)CC5)cc4)n3)C2)C1=O [Compound 198]
15 | 79% | CN1CCN([C@@H]2CCCN(c3cnc(C(N)=O)c(Nc4ccc(C5CCN(C[C@H]6C[C@H](Nc7cccc8c7C(=O)N([C@@H]7CCC(=O)NC7=O)C8=O)C6)CC5)cc4)n3)C2)C1=O [Compound 202]
16 | 13% | Cn1c(=O)n([C@@H]2CCC(=O)NC2=O)c2ccc(N3CC[C@@H](CN4CCC(c5ccc(Nc6nc(N7CCCCC7)cnc6C(N)=O)cc5)CC4)C3)cc21 [Compound 197]
17 | 33% | Cn1c(=O)n([C@@H]2CCC(=O)NC2=O)c2ccc(N3CC[C@H](CN4CCC(c5ccc(Nc6nc(N7CCCCC7)cnc6C(N)=O)cc5)CC4)C3)cc21 [Compound 196]
18 | 43% | CN1CCN([C@H]2CCCN(c3cnc(C(N)=O)c(Nc4ccc(C5CCN(C[C@@H]6CCN(c7ccc(-c8nn(C9CCC(=O)NC9=O)c(=O)n8C)cc7)C6)CC5)cc4)n3)C2)C1=O (some centres unmarked) [Compound 142]
19 | 95% | O=C1CC[C@H](N2C(=O)c3ccc(N4CC[C@H](CN5CCC(c6ccc(Nc7nc(-c8nccs8)cn8ccnc78)cc6)CC5)C4)cc3C2=O)C(=O)N1 [Compound 203]
20 | 37% | NC(=O)c1ncc(N2CCCC(N3CCCC3=O)C2)nc1Nc1ccc(C2CCN(C[C@@H]3CCN(c4ccc5c(c4)C(=O)N(C4CCC(=O)NC4=O)C5=O)C3)CC2)cc1 (some centres unmarked) [Compound 146]
21 | 33% | NC(=O)c1ncc(N2CCC[C@@H](N3CCOC3=O)C2)nc1Nc1ccc(C2CCN(CC3CCN(c4ccc5c(=O)n(C6CCC(=O)NC6=O)ccc5c4)CC3)CC2)cc1 (some centres unmarked) [Compound 153]
22 | 39% | CN1CCN([C@@H]2CCCN(c3cnc(C(N)=O)c(Nc4ccc(C5CCN(CC6CN(c7ccc8c(=O)n(C9CCC(=O)NC9=O)ccc8c7)C6)CC5)cc4)n3)C2)C1=O (some centres unmarked) [Compound 116]
23 | 29% | NC(=O)c1ncc(N2CCC[C@H](N3CCCC3=O)C2)nc1Nc1ccc(C2CCN(CC3CCN(c4ccc5c(=O)n(C6CCC(=O)NC6=O)ccc5c4)CC3)CC2)cc1 (some centres unmarked) [Compound 144]

Same assay, conditions: oral dose 30 mg/kg, 24 h, splenocytes, HTRF

Row | % BTK Remaining | Compound
24 | 62% | NC(=O)c1ncc(N2CCC(F)(F)C(CO)C2)nc1Nc1ccc(C2CCN(C[C@H]3CCN(c4ccc5c(c4)C(=O)N(C4CCC(=O)NC4=O)C5=O)C3)CC2)cc1 (some centres unmarked) [Compound 175]
25 | 84% | NC(=O)c1ncc(N2CCC[C@@H](N3CCCC3=O)C2)nc1Nc1ccc(N2CC(C3CCN(c4ccc5c(c4)C(=O)N(C4CCC(=O)NC4=O)C5=O)CC3)C2)nc1 (some centres unmarked) [Compound 168]
26 | 59% | CN1CCN([C@@H]2CCCN(c3cnc(C(N)=O)c(Nc4ccc(C5CCN(CC6CCN(c7cnn(C8CCC(=O)NC8=O)c(=O)c7)CC6)CC5)cc4)n3)C2)C1=O (some centres unmarked) [Compound 120]
27 | 77% | CN1CCN([C@@H]2CCCN(c3cnc(C(N)=O)c(Nc4ccc(C5CN(CC6CCN(c7ccc(-c8nn(C9CCC(=O)NC9=O)c(=O)n8C)cc7)CC6)C5)cc4)n3)C2)C1=O (some centres unmarked) [Compound 119]
28 | 29% | CN1CCN([C@@H]2CCCN(c3cnc(C(N)=O)c(Nc4ccc(C5CCN(CC6CCN(c7ccc(OC8CCC(=O)NC8=O)cn7)CC6)CC5)cc4)n3)C2)C1=O (some centres unmarked) [Compound 165]
29 | 85% | CN1CCN([C@@H]2CCCN(c3cnc(C(N)=O)c(Nc4ccc(C5CN(CC6CCN(c7cnn(C8CCC(=O)NC8=O)c(=O)c7)CC6)C5)cc4)n3)C2)C1=O (some centres unmarked) [Compound 118]
30 | 29% | NC(=O)c1ncc(N2CCCCC2)nc1Nc1ccc(C2CCN(CC3CCN(c4ccc(OC5CCC(=O)NC5=O)cn4)CC3)CC2)cc1 (centres unmarked) [Compound 164]
31 | 52% | CN1CCN([C@@H]2CCCN(c3cnc(C(N)=O)c(Nc4ccc(N5CCN(C[C@H]6CCN(c7ccc8c(c7)C(=O)N(C7CCC(=O)NC7=O)C8=O)C6)CC5)nc4)n3)C2)C1=O (some centres unmarked) [Compound 113]
32 | 87% | CN1CCN([C@@H]2CCCN(c3cnc(C(N)=O)c(Nc4cnc(N5CCN(C[C@H]6CCN(c7ccc8c(c7)C(=O)N([C@@H]7CCC(=O)NC7=O)C8=O)C6)CC5)nc4)n3)C2)C1=O [Compound 204]

Same assay, conditions: oral dose 90 mg/kg, 6 h, splenocytes, HTRF

Row | % BTK Remaining | Compound
33 | 9% | CN1CCN([C@@H]2CCCN(c3cnc(C(N)=O)c(Nc4ccc(C5CCN(C[C@H]6CCCN(c7ccc8c(c7)C(=O)N(C7CCC(=O)NC7=O)C8=O)C6)CC5)cc4)n3)C2)C1=O (some centres unmarked) [Compound 50]
34 | 89% | CN1CCN([C@@H]2CCCN(c3cnc(C(N)=O)c(Nc4ccc(C5(C)CCN(c6ccc7c(c6)C(=O)N(C6CCC(=O)NC6=O)C7=O)CC5)cc4)n3)C2)C1=O (some centres unmarked) [Compound 58]
35 | 14% | CN1CCN([C@@H]2CCCN(c3cnc(C(N)=O)c(Nc4ccc(N5CCN(C[C@@H]6CCCN(c7ccc8c(c7)C(=O)N(C7CCC(=O)NC7=O)C8=O)C6)CC5)cc4)n3)C2)C1=O (some centres unmarked) [Compound 46]
36 | 2% | CN1CCN([C@@H]2CCCN(c3cnc(C(N)=O)c(Nc4ccc(C5CCN(C[C@@H]6CCN(c7ccc8c(c7)C(=O)N(C7CCC(=O)NC7=O)C8=O)C6)CC5)cc4)n3)C2)C1=O (some centres unmarked) [Compound 52]
37 | 4% | CN1CCN([C@@H]2CCCN(c3cnc(C(N)=O)c(Nc4ccc(N5CCN(CCC6CN(c7ccc8c(c7)C(=O)N(C7CCC(=O)NC7=O)C8=O)C6)CC5)cc4)n3)C2)C1=O (some centres unmarked) [Compound 43]
38 | 7% | CN1CCN([C@@H]2CCCN(c3cnc(C(N)=O)c(Nc4ccc(N5CCN(C[C@H]6CCCN(c7ccc8c(c7)C(=O)N(C7CCC(=O)NC7=O)C8=O)C6)CC5)cc4)n3)C2)C1=O (some centres unmarked) [Compound 48]
